How the values were obtained:
possums [1] = conditions: 0.08% anthraquinone; cited from earlier work
male common voles = conditions: wheat treated with 15% anthraquinone and chloroform; cited from earlier work
red-winged blackbirds = conditions: range printed jointly for Canada geese and red-winged blackbirds; cited from earlier work
Canada geese = conditions: range printed jointly for Canada geese and red-winged blackbirds; cited from earlier work
deer mice = experiment: Deer mouse concentration-response feeding experiment; type: in vivo, Peromyscus maniculatus Wagner
black rats = conditions: 0.1% and 0.25% anthraquinone; cited from earlier work
American crows = conditions: in vivo; cited from earlier work
female common voles = conditions: wheat treated with 5% anthraquinone and chloroform; cited from earlier work
brown rats = conditions: 0.04% and 0.08% anthraquinone; control baits 0.01-0.03% cinnamon, green carrots; cited from earlier work
ring-necked pheasants = conditions: in vivo; cited from earlier work
[2] = system: Richardson's ground squirrels; experiment: Richardson's ground squirrel concentration-response feeding experiment; type: in vivo, Urocitellus richardsonii Sabine
California voles = experiment: California vole concentration-response feeding experiment; type: in vivo, Microtus californicus Peale
male house mice = conditions: wheat treated with 15% anthraquinone and chloroform; cited from earlier work
[3] = system: black-tailed prairie dogs; conditions: corn seeds treated with 0.5-4.0% anthraquinone; cited from earlier work
possums [4] = conditions: 0.25% anthraquinone; cited from earlier work
cottontail rabbits = experiment: Cottontail rabbit concentration-response feeding experiment; type: in vivo, Sylvilagus audubonii Baird
wild boar = conditions: corn treated with 0.64% anthraquinone; cited from earlier work
common grackles = conditions: in vivo; cited from earlier work

O=C1c2ccccc2C(=O)c2ccccc21 [anthraquinone, 9,10-anthraquinone]
consumption of anthraquinone-treated baits relative to control baits (possums [1]): no different
consumption of treated wheat relative to wheat treated only with chloroform (male common voles): no difference
predicted threshold concentration (red-winged blackbirds): 1,450-1,475 ppm
predicted threshold concentration (Canada geese): 1,450-1,475 ppm
repellency (deer mice; whole oats treated with 0.25-2.0% anthraquinone (target; actual 2,820-19,900 ppm)): 19-52%
repellency (deer mice; whole oats treated with 10,800 ppm anthraquinone): 52%
response to anthraquinone-treated baits (black rats): aversion
predicted threshold concentration (American crows): 5,200 ppm
less treated wheat consumed than wheat treated only with chloroform (female common voles): 47%
consumption of anthraquinone-treated baits relative to control baits (brown rats): less
predicted threshold concentration (ring-necked pheasants): 10,450 ppm
feeding repellency ([2]; whole oats treated with 0.5-2.0% anthraquinone (target; actual 5,380-18,500 ppm)): 40-56%
repellency ([2]; whole oats treated with 18,500 ppm anthraquinone): 56%
anthraquinone dosage for observed threshold repellency (California voles; at 18,300 ppm anthraquinone (84% repellency), mean vole BM=38.1 g): 365.0±103.1 mg anthraquinone/kg BM
threshold concentration (California voles; can effectively repel voles from treated food): 1.3 % (wt/wt)
predicted threshold concentration (California voles; concentration needed to achieve 80% feeding repellency, non-linear regression, treated oats): about 13,400 ppm
repellency (California voles; whole oats treated with 0.25-2.0% anthraquinone (target, wt/wt; actual 2,050-18,300 ppm), test consumption (day 4) relative to pre-test consumption): 24-84%
repellency (California voles; whole oats treated with 18,300 ppm anthraquinone): 84%
consumption of treated wheat relative to wheat treated only with chloroform (male house mice): greater consumption
repellency [3]: 24-37%
response to anthraquinone-treated baits (possums [4]): aversion
anthraquinone dosage for observed threshold repellency (cottontail rabbits): 149.9±28.1 mg anthraquinone/kg BM
repellency (cottontail rabbits; oats treated with 4,790 ppm anthraquinone): 68%
repellency (cottontail rabbits; oats treated with 10,300 ppm anthraquinone): 75%
feeding repellency (cottontail rabbits; whole oats treated with 0.5-2.0% anthraquinone (target; actual 4,790-19,600 ppm)): 68-85%
feeding repellency (cottontail rabbits; whole oats treated with 19,600 ppm anthraquinone (target 2.0%)): 85%
less treated corn consumed than untreated corn (wild boar): 86.5%
predicted threshold concentration (common grackles): 9,200 ppm

— patent publication US11252953B2, “Repellent and attractant composition for dichromatic animals” (The United States of America, Represented by the Secretary …, priority 2016, dated 2022)
